The source of these data is ChEMBL document CHEMBL6120940, “Discovery of N-Aryl-N'-[4-(aryloxy)cyclohexyl]squaramide-Based Inhibitors of LXR/SREBP-1c Signaling Pathway Ameliorating Steatotic Liver Disease: Navigating the Role of SIRT6 Activation” (J Med Chem, 2024).

Active and inactive are the calls of the source. The calls are words filed in the database; no cut-off is given here.

In data set [1] the target is T1, Sterol regulatory element-binding protein 1 (Homo sapiens) (UniProt P36956).
T1 sequence (whole entry): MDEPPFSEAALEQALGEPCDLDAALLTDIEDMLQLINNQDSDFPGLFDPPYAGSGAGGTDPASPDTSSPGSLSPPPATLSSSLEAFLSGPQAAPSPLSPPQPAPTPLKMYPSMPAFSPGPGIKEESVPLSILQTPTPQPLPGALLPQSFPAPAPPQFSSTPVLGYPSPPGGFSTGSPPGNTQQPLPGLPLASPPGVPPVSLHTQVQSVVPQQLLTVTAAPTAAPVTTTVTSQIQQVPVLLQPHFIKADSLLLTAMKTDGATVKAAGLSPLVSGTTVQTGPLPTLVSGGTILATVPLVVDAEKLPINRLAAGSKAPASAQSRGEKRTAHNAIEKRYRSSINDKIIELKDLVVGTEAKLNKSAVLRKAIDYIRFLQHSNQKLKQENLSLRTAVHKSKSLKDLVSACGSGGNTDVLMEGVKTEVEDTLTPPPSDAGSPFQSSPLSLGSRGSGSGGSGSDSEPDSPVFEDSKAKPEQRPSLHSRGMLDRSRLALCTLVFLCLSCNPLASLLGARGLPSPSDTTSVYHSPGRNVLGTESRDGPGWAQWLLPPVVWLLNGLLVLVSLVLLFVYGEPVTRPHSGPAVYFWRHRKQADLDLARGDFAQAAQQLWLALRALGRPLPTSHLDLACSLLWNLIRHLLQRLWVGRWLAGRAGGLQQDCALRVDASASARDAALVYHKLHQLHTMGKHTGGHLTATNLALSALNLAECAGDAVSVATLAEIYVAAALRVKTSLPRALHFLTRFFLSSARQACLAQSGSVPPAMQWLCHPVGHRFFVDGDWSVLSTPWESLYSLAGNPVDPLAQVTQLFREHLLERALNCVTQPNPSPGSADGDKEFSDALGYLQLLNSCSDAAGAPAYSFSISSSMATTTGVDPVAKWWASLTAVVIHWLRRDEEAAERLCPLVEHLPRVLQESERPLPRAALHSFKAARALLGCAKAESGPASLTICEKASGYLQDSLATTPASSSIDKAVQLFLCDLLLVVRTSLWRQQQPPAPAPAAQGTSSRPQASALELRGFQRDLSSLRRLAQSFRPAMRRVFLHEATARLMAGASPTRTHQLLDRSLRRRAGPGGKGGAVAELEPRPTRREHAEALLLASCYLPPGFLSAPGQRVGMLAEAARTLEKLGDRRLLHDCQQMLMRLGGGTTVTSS
Put plainly: Inhibition of SREBP-1c transcriptional activity in human HepG2 cells expressing LXRalpha/RXRalpha assessed as reduction in SRE-luciferase level at 10 uM pretreated with compound for 30 mins followed by T0901317 addition and measured after 12 hrs by Dual-Glo luciferase assay relative to control. In kind it is cell-based. Conditions: time 12.5 hrs.

Data set [2] is described as follows: Metabolic stability in rat liver microsomes at 1 uM measured after 30 mins in presence of NADPH regeneration system by LC-MS/MS analysis. The conditions noted are these: read-out: Stability. It is filed as ADME, Microsome. Background: Microsomes from liver hold many membrane-bound enzymes, among them those of drug oxidation.
Another data set has as its target CYP2C9 (Homo sapiens, UniProt P11712). Kind of data set: Inhibition of CYP2C9 in human liver microsomes at 10 uM using diclofenac as substrate preincubated for 5 mins followed by NADPH generating system addition and measured after 15 mins relative to control. Conditions: probe diclofenac, time 20 min. In kind it is ADME, Microsome.
Data set [3] can be described thus: AUC infinity in 16 hrs fasted ICR mouse at 2 mg/kg, iv measured upto 8 hrs by LC-MS/MS analysis. Conditions: in vivo. In kind it is ADME, organism-based.
A short description of data set [4]: (§1) Downregulation of SREBP-1c mRNA expression in human HepG2 cells pretreated with compound for 30 mins followed by T0901317 addition and measured after 12 hrs by RT-qPCR analysis. In kind it is functional, cell-based. On the technique in general: Quantitative PCR measures a nucleic acid by following its amplification.
For data set [5], the system named is HepG2. Described as §1. It is filed as functional, cell-based. Conditions: dose 0.01-100 µM, time 12.5 hrs.
In data set [6] the test system is HepG2. Put plainly: Effect on SREBP-1a in human HepG2 cells at 10 uM pretreated with compound for 30 mins followed by T0901317 addition and measured after 12 hrs by immunoblot analysis. In kind it is functional, cell-based. Conditions: time 12.5 hrs.
For data set [7], the system named is HepG2. Kind of data set: Downregulation of FASN mRNA level in human HepG2 cells at 10 uM pretreated with compound for 30 mins followed by T0901317 addition and measured after 12 hrs by RT-qPCR analysis. It is filed as functional, cell-based. The conditions noted are these: time 12.5 hrs.
The target of data set [8] is T2, Oxysterols receptor LXR-alpha (Homo sapiens) (UniProt Q13133).
T2 sequence (whole entry): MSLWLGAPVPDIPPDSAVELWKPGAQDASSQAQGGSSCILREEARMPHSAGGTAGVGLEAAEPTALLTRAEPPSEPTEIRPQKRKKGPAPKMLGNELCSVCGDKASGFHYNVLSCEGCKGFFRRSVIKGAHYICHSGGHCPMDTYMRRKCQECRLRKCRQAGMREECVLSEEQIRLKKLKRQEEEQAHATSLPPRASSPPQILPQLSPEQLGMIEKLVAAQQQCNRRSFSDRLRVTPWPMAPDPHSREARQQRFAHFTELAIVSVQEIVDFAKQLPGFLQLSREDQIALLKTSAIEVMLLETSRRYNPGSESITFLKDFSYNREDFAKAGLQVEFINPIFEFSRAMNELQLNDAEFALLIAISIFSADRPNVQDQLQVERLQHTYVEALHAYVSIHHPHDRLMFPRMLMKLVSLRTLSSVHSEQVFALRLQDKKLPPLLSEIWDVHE
Put plainly: Inhibition of LXRalpha in human HepG2 cells expressing LXRE at 2.5 to 5 uM preincubated for 30 mins followed by T0901317 addition and measured after 24 hrs by Dual-glo luciferase assay. In kind it is cell-based. Conditions: dose 2.5-5 µM, time 24.5 hrs.

Data set [9] relates to HepG2. Kind of data set: Downregulation of LXRalpha expression level in nucleus of human HepG2 cells at 10 uM preincubated with compound for 30 mins followed by T0901317 addition and measured after 24 hrs by immunoblot analysis. It is filed as functional, cell-based. The conditions noted are these: time 24.5 hrs. (A western blot detects proteins with antibodies after separation by electrophoresis.)

Data set [10] has as its system Hepatocyte. Kind of data set: Downregulation of Cd36 mRNA level in mouse Hepatocyte at 10 uM incubated for 30 mins followed by T0901317 addition by RT-qPCR analysis. It is filed as functional, cell-based.
The subject of data set [11] is Hepatocyte. Put plainly: Effect on Ppara gene expression in mouse hepatocyte. It is filed as functional, cell-based.
Data set [12] concerns HepG2. Put plainly: Downregulation of ACACA level in human HepG2 cells at 10 uM preincubated for 30 mins followed by OSS128167 addition and measured after 12 hrs. It is filed as functional, cell-based. The conditions noted are these: time 12.5 hrs.
Data set [13] concerns Mus musculus. Kind of data set: Anti-lipogenic activity against high fat died induced male C57BL/6J mouse obesity model assessed as reduction hepatic triglyceride level at 15 mg/kg, po administered three times per week and measured for 5 weeks by H and E staining based analysis. In kind it is functional, organism-based.
Data set [14] deals with Mus musculus. Kind of data set: Anti-lipogenic activity against high fat died induced male C57BL/6J mouse obesity model assessed as downregulation of Srebp-1c level at 15 mg/kg, po administered three times per week and measured after 5 weeks by RT-qPCT analysis. In kind it is functional, organism-based.
For data set [15], the system named is Mus musculus. Put plainly: Anti-lipogenic activity against high fat died induced male C57BL/6J mouse obesity model assessed as downregulation of Acaca-gene level at 15 mg/kg, po administered three times per week and measured after 5 weeks by RT-qPCT analysis. In kind it is functional, organism-based.
The test system of data set [16] is Mus musculus. Put plainly: Anti-lipogenic activity against high fat died induced male C57BL/6J mouse obesity model assessed as downregulation of F4/80 mRNA level at 15 mg/kg, po administered three times per week and measured after 5 weeks by RT-qPCT analysis. In kind it is functional, organism-based.

Sequence of CYP2C9 (P11712 whole entry): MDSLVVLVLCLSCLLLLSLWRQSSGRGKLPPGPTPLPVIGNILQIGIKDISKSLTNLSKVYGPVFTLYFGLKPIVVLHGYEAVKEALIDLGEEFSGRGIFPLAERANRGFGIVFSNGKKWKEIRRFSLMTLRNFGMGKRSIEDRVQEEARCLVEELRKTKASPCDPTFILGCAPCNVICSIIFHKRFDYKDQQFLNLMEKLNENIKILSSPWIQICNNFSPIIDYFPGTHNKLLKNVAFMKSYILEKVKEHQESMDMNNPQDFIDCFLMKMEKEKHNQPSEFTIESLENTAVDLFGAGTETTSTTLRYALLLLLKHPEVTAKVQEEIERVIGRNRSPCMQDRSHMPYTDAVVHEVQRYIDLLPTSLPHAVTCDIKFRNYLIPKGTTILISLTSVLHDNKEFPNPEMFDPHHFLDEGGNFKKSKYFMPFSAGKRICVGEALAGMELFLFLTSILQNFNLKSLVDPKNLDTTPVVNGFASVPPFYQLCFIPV

For `COc1ccccc1Nc1c(N[C@H]2CC[C@H](Oc3ccc([N+](=O)[O-])cc3)CC2)c(=O)c1=O`, in [1], the inhibition (usually the relative decrease from the control value, in per cent) stood at 27.7%. Besides, in [2], the remaining at 0.5 h, 1 µM is 32.5%. At CYP2C9, this molecule gave an inhibition at 0.25 h, 10 µM of 60.5%. In [3], the AUC(0-inf) (as a rule, the area under the concentration-time curve extrapolated to infinity) stood at 2400 ng·h/mL. Besides, the IC50 (commonly the concentration that gives 50% inhibition) in data set [4] turned out to be 2500 nM. Moreover, in the data set with HepG2 [5], the Activity entry is “Dose-dependent-effect”. Besides, the result in the data set on HepG2 [6], with Hepatocyte [10], in the data set with Hepatocyte [11] and in the data set with HepG2 [12] was inactive. Besides, the result with HepG2 [7], in the data set on HepG2 [9], with Mus musculus [13], in the data set on Mus musculus [14], in the data set on Mus musculus [15] and with Mus musculus [16] was Active. In [8], the inhibition entry is “Active”.
